Laboratory results from patent US4590178A (Ajinomoto Company, Incorporated, priority 1982, dated 1986).

Tests used:
[1] = system: spontaneously hypertensive rats; assay: Antihypertensive activity: systolic blood pressure measured indirectly on conscious SHR after peroral dosing; type: in vivo, rat; settings: for Systolic Blood Pressure, Pretreatment: SHR (male, 13 months, 2 per sample), before 35 mg/kg peroral single dose; for Systolic Blood Pressure, 4 hrs after administration / Δ Blood Pressure: SHR; for Systolic Blood Pressure, 4 hrs after administration: 4 hours after 35 mg/kg peroral single dose; for Δ Blood Pressure: 4 hours after 35 mg/kg peroral single dose versus pretreatment
Method: The antihypertensive activity of part of the amino acid derivatives prepared above, was determined.
As subject animals 2 SHR were used which had been trained enough and been confirmed to be hypertensive spontaneously hypertensive rats (male, 13 months of age, the body weight of 400 to 440 g) per sample.
As an instrument for measuring the blood pressure a Programmed Electro-Sphygmomanometer PE-300 (Narco Co., U.S.A.) was used, and the blood pressure was indirectly measured on conscious rats.
An aqueous solution or suspension of a sample (35 mg/kg) was once force-fed into the stomach by means of a peroral probe.
An antihypertensive activity of part of the amino acid derivatives prepared above was determined.
As subject animals there were used 2 SHR which had been trained enough and been confirmed to be hypertensive spontaneously hypertensive rats (male, 13 months of age, the body weight of 400~440 g) per sample.
As an instrument for measuring the blood pressure there was used Programmed Electro-Sphygmomanometer PE-300 (Narco Co., U.S.A.), and the blood pressure was indirectly measured on conscious rats.
An antihypertensive activity of the product prepared above was determined.

[2] = 27.7° C.

| Compound | Systolic Blood Pressure, Pretreatment [1] [mm Hg] | Systolic Blood Pressure, 4 hrs after administration [1] [mm Hg] | Δ Blood Pressure [1] [mm Hg] | Median lethal dose (LD50) (mouse) | Median lethal dose (LD50) (rat) | .rho.Ka [2] |
| --- | --- | --- | --- | --- | --- | --- |
| C[C@H](NP(=O)(OCc1ccccc1)OCc1ccccc1)C(=O)N1CCC[C@H]1C(=O)N1CCC[C@H]1C(=O)O [Example 84, Dibenzylphosphoryl-L-alanyl-L-propyl-L-proline in the crystalline form] | 219 | 188 | -31 | more than 15 g/kg | more than 15 g/kg | 3.92 |
| Dibenzylphosphoryl-L-alanyl-L-prolyl-L-serine L-arginine salt [Example 2] | 202 | 180 | -22 | – | – | – |
| Dibenzylphosphoryl-L-alanyl-N-(2-indanyl)-glycyl-L-proline L-arginine salt [Example 31] | 199 | 169 | -30 | – | – | – |
| Dibenzylphosphoryl-L-isoleucyl-L-prolyl-L-proline L-arginine salt [Example 18] | 192 | 171 | -21 | – | – | – |
| Dibenzylphosphoryl-L-prolyl-L-tyrosine L-arginine salt [Example 4] | 207 | 195 | -12 | – | – | – |
| Dibenzylphosphoryl-glycyl-L-prolyl-L-proline L-arginine salt [Example 19] | 196 | 181 | -15 | – | – | – |
| Diethylphosphoryl-L-alanyl-L-prolyl-L-proline L-arginine salt [Example 25] | 183 | 156 | -27 | – | – | – |
| Diethylphosphoryl-L-lysyl-L-prolyl-L-proline L-arginine salt [Example 23] | 190 | 165 | -25 | – | – | – |
| Diethylphosphoryl-L-lysyl-L-prolyl-L-proline calcium salt [Example 56] | 204 | 181 | -23 | – | – | – |
| Diethylphosphoryl-L-methionyl-L-prolyl-L-proline L-argine salt [Example 44] | 189 | 179 | -10 | – | – | – |
| N-Phenethylphosphonyl-L-methionyl-L-prolyl-L-proline 2 sodium salt [Example 34] | 183 | 154 | -29 | – | – | – |
| Phosphoryl-L-alanyl-L-prolyl-L-proline L-arginine salt [Example 8] | 196 | 177 | -19 | – | – | – |
